One experiment deals with T1, GPR39 (Homo sapiens, UniProt O43194).
T1 sequence (O43194 1-453): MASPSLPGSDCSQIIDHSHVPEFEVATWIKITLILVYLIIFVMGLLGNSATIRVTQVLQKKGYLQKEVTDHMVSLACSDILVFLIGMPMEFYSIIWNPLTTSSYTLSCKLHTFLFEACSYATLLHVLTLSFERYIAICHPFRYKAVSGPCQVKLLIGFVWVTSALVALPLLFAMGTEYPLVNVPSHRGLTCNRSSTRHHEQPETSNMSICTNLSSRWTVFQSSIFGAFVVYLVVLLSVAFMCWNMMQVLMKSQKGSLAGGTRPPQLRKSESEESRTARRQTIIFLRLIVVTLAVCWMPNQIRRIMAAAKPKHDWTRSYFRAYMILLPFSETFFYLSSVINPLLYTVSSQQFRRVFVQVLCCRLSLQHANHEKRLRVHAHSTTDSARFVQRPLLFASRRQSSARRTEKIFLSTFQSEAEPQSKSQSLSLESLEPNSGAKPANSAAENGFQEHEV
Description: Dynamic mass redistribution (DMR) label-free assay, HEK293s-hGPR39 cells. Format: cell-based. More on the design: Full length human (AF034633), rat (DM091294) and mouse (BC085285) GPR39; expressed in transfected cells; host or cells: HEK293s (ATCC CRL-1573), pIRESneo3 vector, selected clones. The settings on record: for Efficacy at 33 μM: AZ1395 100% reference. From the text:
(§1) Full length human (AF034633), rat (DM091294) and mouse (BC085285) GPR39 (GeneArt–Life Technologies, Carlsbad, CA) were subcloned into the pIRESneo3 vector (Clontech, Mountain View, CA). The resulting expression vectors hGPR39-, rGPR39- and mGPR39-pIRESneo3 were transfected into HEK293s cells (ATCC CRL-1573) using Lipofectamine 2000 (Life Technologies). Individual clones were isolated using flow cytometry with a FACSVantage SE DIVA (Becton Dickinson, Franklin Lakes, NJ) and clones were chosen based on responses to Zn^2+ measured in a cAMP assay (see below). […] HEK293s-derived cell lines were cultured at 37°C, 10% CO2 and 95% humidity in DMEM supplemented with 10% FBS and 600 μg/ml Geneticin (Life Technologies). The mouse pancreas epithelial cell line NIT-1 (ATCC CRL-2055) with endogenous expression of GPR39 was cultured at 37°C, 5% CO2, and 95% humidity in Ham´s F12 (Life Technologies) supplemented with 10% FBS.
(§2) DMR assays were performed using an Epic instrument (Corning Inc., Corning, NY). 12,000 cells per well were cultured for 24 h in 384-well fibronectin-coated Epic biosensor plates (Corning). On the day of experiment, culture medium was removed and replaced with 30 μl buffer A (HBSS, HEPES 20 mM pH7.4, 1% DMSO, 0.01% BSA) using an EL406 (Bio-Tek). Plates were incubated at 26 °C for 1 h inside the Epic to allow for temperature equilibration. A baseline was read for 2 min, and then 15 μl compounds in buffer A were added using a CyBi-Well vario (CyBio) and DMR was detected during 45 min.
(§3) Concentration response data were fitted with a four parameter logistic fit using Eq 1, y=A+((B−A)/1+((C/x)^D))) (1) where A is no activation, B is full activation, C is the EC50 and D is the Hill slope.

The next experiment concerns the target T2, rGPR39 (Rattus norvegicus, UniProt A0A8J8Y1V6).
T2 sequence (A0A8J8Y1V6 1-456): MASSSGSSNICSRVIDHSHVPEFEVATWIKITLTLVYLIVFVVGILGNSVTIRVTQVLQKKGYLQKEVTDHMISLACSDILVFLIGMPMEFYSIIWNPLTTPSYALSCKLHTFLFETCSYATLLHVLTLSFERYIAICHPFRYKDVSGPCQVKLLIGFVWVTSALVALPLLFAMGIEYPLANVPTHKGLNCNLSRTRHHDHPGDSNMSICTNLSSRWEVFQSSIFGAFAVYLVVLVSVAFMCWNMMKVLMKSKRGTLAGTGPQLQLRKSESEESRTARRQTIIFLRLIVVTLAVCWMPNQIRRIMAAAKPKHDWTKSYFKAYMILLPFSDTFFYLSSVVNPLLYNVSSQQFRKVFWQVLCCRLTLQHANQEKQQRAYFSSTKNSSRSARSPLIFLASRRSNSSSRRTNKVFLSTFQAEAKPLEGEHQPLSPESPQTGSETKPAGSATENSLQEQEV
Description: DMR label-free assay, HEK293s cells transfected with rat GPR39. It counts as cell-based.
Description: as §1, §2, §3

Where [1] appears, read: absence (w/o) of Zn^2+, read-out: pEC50 ± SD (converted).
Setting [2] is: presence of 5 μM Zn^2+, read-out: EC50.
Setting [3] is: presence of 5 μM Zn^2+, read-out: pEC50 ± SD (converted).
[4] abbreviates: absence (w/o) of Zn^2+, read-out: EC50.

Where two headings read alike, the source gives them in different places. A value given as a limit tells only on which side of the number the result lay.

As to `N#Cc1ccc(OCCn2ccnc2)c(OCCn2ccnc2)c1` [AZ1395, 3,4-bis-(2-imidazol-1-ylethoxy)-benzonitrile], the EC50 at GPR39 (setting [1]) was 2.29 µM; at GPR39 (setting [2]), 0.036 µM; on GPR39 (setting [3]), 0.0355 µM; at rGPR39 (setting [4]), 5.1 µM; on rGPR39 (setting [1]), 5.13 µM; on rGPR39 (setting [2]) it was 0.033 µM. Moreover, the EC50 at rGPR39 (setting [3]) was 0.0331 µM.

As for `Cc1nc2c(C(=O)O)cnn2c(O)c1Cc1ccc(Cl)cc1` [AZ4237, 6-[(4-chlorophenyl)methyl]-7-hydroxy-5-methyl-pyrazolo[1,5-a]pyrimidine-3-carboxylic acid], at GPR39 (absence (w/o) of Zn^2+), the “Efficacy at 33 μM” value stood at 20%. Besides, the EC50 on GPR39 (setting [4]) was more than 33 µM; on GPR39 (setting [3]) it was 0.191 µM; at rGPR39 (setting [4]), more than 33 µM; at rGPR39 (setting [2]), 0.15 µM; at rGPR39 (setting [3]), 0.148 µM.

`Cc1nc(-c2nc3c(c(=O)[nH]2)CN(C(=O)c2cccc(Cl)c2F)CC3)cs1` [AZ7914, 6-(3-chloro-2-fluoro-benzoyl)-2-(2-methylthiazol-4-yl)-3,5,7,8-tetrahydropyrido-[4,3-d]pyrimidin-4-one]: on GPR39 (absence (w/o) of Zn^2+), the “Efficacy at 33 μM” value stood at 39%. For the same molecule, the EC50 on GPR39 (setting [4]) is more than 33 µM; at GPR39 (setting [3]) it was 0.102 µM; at rGPR39 (setting [4]) it was 7.4 µM; at rGPR39 (setting [2]) it was 0.15 µM; on rGPR39 (setting [3]) it was 0.148 µM.

As for `[Zn+2]` [Zn^2+], at GPR39 (Zn^2+ by itself), the “Emax relative to the 100% efficacy reference AZ1395” value is approximately 35% and the “pEC50 ± SD” value is listed as “(4.87 ± 0.05)”. For the same molecule, at GPR39 (Zn^2+ by itself, read-out: EC50), the EC50 was 13 µM.

The values are drawn from publication PMC4697807, “Novel Zn^2+ Modulated GPR39 Receptor Agonists Do Not Drive Acute Insulin Secretion in Rodents” (PLoS ONE, 2015).
